{
  "source": "patent US11229633B2",
  "about": "“Arimoclomol formulation” (Orphazyme A/S, priority 2014, dated 2022)",
  "molecular_target": "T1, OATP1B3 (Homo sapiens, UniProt Q9NPD5)",
  "T1 sequence (Q9NPD5 1-702)": "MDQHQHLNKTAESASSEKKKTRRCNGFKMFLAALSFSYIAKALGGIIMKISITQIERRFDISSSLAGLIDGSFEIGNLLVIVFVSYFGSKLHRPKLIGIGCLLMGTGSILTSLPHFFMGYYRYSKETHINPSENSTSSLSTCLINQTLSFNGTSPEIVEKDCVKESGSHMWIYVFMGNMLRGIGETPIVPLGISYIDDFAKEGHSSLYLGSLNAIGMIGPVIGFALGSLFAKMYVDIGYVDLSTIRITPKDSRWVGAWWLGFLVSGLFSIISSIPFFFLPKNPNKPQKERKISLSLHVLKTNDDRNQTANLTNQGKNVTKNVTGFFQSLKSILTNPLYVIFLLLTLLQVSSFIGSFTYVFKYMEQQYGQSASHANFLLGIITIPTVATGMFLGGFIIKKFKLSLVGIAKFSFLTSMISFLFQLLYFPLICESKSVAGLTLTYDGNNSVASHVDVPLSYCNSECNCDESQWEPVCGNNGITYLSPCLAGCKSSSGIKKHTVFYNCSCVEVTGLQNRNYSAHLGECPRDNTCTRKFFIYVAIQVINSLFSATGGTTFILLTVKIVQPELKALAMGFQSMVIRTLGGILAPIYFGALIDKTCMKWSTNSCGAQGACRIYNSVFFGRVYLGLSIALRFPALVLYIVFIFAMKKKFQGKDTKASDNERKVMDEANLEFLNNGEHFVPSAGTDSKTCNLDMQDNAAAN",
  "assay": "Uptake transporter inhibition assay, OATP1B3",
  "format": "in vitro ADME",
  "parameters": "expressed in transfected cells; host or cells: CHO (protocol UPT-CHO-OATP1B3-Fluo3; control: parental CHO-K1; 5 mM Na+ butyrate induction); key to maximum inhibition: NIO: No interaction observed",
  "conditions": "for maximum inhibition: 0.3-300 μM",
  "procedure": "Uptake experiments were performed using CHO, MDCKII, or HEK293 cells stably expressing the respective uptake transporters.\nCells were cultured at 37±1° C. in an atmosphere of 95:5 air:CO2 and were plated onto standard 96-well tissue culture plates at the cell number described in table 4.\nBefore the experiment, the medium was removed and the cells were washed twice with 100 μl of HK buffer at pH 7.4 (prepared from Sigma chemicals, Sigma-Aldrich, St Louis, Mo.). Uptake experiments were carried out at 37±1° C. in 50 μl of HK buffer (pH 7.4) containing the probe substrate and the TA or vehicle control (water).\nAfter the experiment, cells were washed twice with ice cold, 100 μl of HK buffer and lysed with 50 μl of 0.1 M NaOH (1 mM CaCl2) in 5% SDS in the case of OATP1B3). Fluo-3 transport (OATP1B3) was determined by measuring fluorescence using 485 nm and 520 nm as the excitation and emission wavelengths, respectively. Radiolabelled probe substrate transport was determined by measuring an aliquot (35 μl) from each well for liquid scintillation counting.\nUptake of the probe substrate in control cells provided background activity values for all data points. Incubation without TA or reference inhibitor (solvent only) provided 100% activity values. A reference inhibitor served as positive control for inhibition.\nThe amount of translocated probe substrate was determined for each well in cpm or RFU. Relative activities were calculated from the equation:\n[formula] A: amount of translocated substrate in the presence of TA in transfected cells B: amount of translocated substrate in the presence of TA in control cells C: amount of translocated substrate in the presence of solvent in transfected cells D: amount of translocated substrate in the presence of solvent in control cells Calculation of Fold Accumulation Values\nIn uptake transporter inhibition assays, the IC50 (μM) was calculated, where applicable. […]",
  "note": "Entries after “also recorded” stand apart in the source; their conditions may differ.",
  "data": [
    {"smiles": "[O-][n+]1cccc(C(Cl)=NOCC(O)CN2CCCCC2)c1", "note": "(stereo not drawn) [Arimoclomol, N-[2-hydroxy-3-(1-piperidinyl)-propoxy]-pyridine-1-oxide-3-carboximidoyl chloride]", "values": [
      {"measurement": "maximum inhibition", "setting": "Table 2", "result": "NIO"},
      {"measurement": "maximum inhibition", "setting": "Table 5", "result": "NIO"},
      {"measurement": "Influence on OATP1B3-mediated probe substrate accumulation (in words)", "setting": "applied concentrations", "result": "did not influence; also recorded: not an inhibitor"}
    ]}
  ]
}
